{
  "source": "patent US20260315609A1",
  "about": "“MIXED VASOPRESSIN RECEPTOR AGONIST-ANTAGONIST FOR TREATING END-STAGE LIVER DISEASE AND COMPLICATIONS ASSOCIATED THEREOF” (FERRING B.V., priority 2022, published 2026)",
  "key": {"[1]": {"experiment": "Effect of buffer concentration on bioavailability and M1 formation after SC (bolus) injection in rats", "type": "in vivo, rat", "details": "s.c. (bolus)"}, "[2]": {"test_system": "blood lactate", "experiment": "Blood lactate in cynomolgus monkeys after SC Compound 1", "type": "in vivo, cynomolgus monkey", "details": "15-360 min", "protocol": "Blood samples (0.5 mL in EDTA) were collected from a femoral or saphenous vein before dosing and at multiple times continuing out to 480 min after administration. Lactate concentration was also measured as part of PD analysis and collected as EDTA whole blood from the pre-dose, 15-, 40-, 90-, 180-, and 360-min post-administration samples immediately after collection using a Lactate Plus (Nova Biomedical) meter. For blood sample analysis, plasma was prepared from whole blood. Subsequent bioanalysis included compound extraction followed by standard LC/MS methods to determine compound concentration in each sample."}, "[3]": {"target": "T1, hV1b receptor (Homo sapiens, UniProt P47901)", "T1 sequence (P47901 1-424)": "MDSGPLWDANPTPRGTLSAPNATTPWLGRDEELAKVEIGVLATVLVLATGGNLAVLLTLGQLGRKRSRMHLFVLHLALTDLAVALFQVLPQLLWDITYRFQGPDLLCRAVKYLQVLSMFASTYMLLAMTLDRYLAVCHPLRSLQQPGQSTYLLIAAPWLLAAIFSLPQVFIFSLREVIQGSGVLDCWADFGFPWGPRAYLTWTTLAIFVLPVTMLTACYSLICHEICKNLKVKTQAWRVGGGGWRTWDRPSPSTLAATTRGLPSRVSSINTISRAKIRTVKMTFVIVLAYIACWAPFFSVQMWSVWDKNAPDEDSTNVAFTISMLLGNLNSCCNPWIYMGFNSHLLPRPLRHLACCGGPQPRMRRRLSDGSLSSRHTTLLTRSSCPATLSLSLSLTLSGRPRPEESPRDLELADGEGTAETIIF", "experiment": "Luciferase reporter gene assay, human V1b", "details": "read-out: % MPE", "procedure": "Cell Maintenance. […]\nFunctional Cell-Based Assays. To detect activity generated by binding of the test compounds to endogenous rV1a receptors or the stably expressed hV1a receptors, Fluorometric Imaging Plate Reader (FL1PR) calcium assays were performed. Briefly, real-time fluorescence of an intracellular calcium-sensitive dye was measured immediately upon addition of the test compound at various concentrations. […] Expression of the luciferase gene was determined after 5-h incubation with various concentrations of test compound. […] For V1a receptor response, area under the curve of the real-time calcium traces, expressed as relative fluorescence units, was determined. […]"}, "[4]": {"experiment": "Safety and tolerability / adverse events in healthy subjects", "type": "in vivo, human", "excerpt": "The terms “adverse event” or “AE” as used herein, refer to an untoward medical occurrence in an individual, such as an individual participating in a clinical trial. In some instances, an AE is an unfavorable and/or unintended sign, symptom, or disease, such as being temporally associated with the use of an investigative medicinal product (IMP), whether or not considered to be caused by the IMP. For example, an AE can include accidental injuries, reasons for any change in medication (drug and/or dose), reasons for any medical, nursing or pharmacy consultation, or reasons for admission to hospital or surgical procedures, and overdoses and medication errors with or without clinical consequences. In some instances, AEs are anticipated based on the pharmacological effect of the IMP. In some instances, an AE is a laboratory abnormality, vital sign or finding from physical or gynecological examination assessed as clinically significant by the investigator. In some instances, a pre-treatment adverse event is any untoward medical occurrence arising or observed between signing of informed consent and the first administration of the IMP. In some instances, a treatment emergent adverse event is an AE occurring after the administration of the IMP and within the time of residual drug effect, or a pre-treatment adverse event or pre-existing medical condition that worsens in intensity after administration of the IMP and within the time of residual drug effect.\nInjection site reactions were assessed by the Investigator in treatment Period 2 only, immediately after, 0.5, 4, and 24 hours after subcutaneous administration of the study drug on Days 1 to 5. The injection site reactions to be assessed were erythema, pain, pruritus, oedema, bruising, and pallor, each to be assessed as none, mild, moderate, or severe. Injection site reactions other than those described above or persisting longer than 24 hours were classified as adverse events (AEs).\nBlood samples for hematology and hemostasis parameters were collected on Day −1, and at 2, and 4 hours after the administration on Day 1, pre-dose, and 3 hours after the administration on Days 2-4, pre-dose, and at 2, and 6 hours after the administration on Day 5 and at follow-up. The actual sampling times were recorded.\nUrinalysis was performed locally by means of a dip-stick test. […] In case any result of the dipstick was abnormal and clinically significant, a new urine test was to be performed. If the abnormal result was confirmed, further examination could be initiated at the discretion of the Investigator. Clinically significant abnormal findings were reported as AEs. The metabolite pattern of Compound 1 in plasma and urine were measured."}, "[5]": {"target": "T2, rV1a receptor (Rattus norvegicus, UniProt P30560)", "T2 construct": "endogenously expressing rV1a; host or cells: A7r5 rat thoracic aorta smooth muscle cells", "T2 sequence (P30560 whole entry)": "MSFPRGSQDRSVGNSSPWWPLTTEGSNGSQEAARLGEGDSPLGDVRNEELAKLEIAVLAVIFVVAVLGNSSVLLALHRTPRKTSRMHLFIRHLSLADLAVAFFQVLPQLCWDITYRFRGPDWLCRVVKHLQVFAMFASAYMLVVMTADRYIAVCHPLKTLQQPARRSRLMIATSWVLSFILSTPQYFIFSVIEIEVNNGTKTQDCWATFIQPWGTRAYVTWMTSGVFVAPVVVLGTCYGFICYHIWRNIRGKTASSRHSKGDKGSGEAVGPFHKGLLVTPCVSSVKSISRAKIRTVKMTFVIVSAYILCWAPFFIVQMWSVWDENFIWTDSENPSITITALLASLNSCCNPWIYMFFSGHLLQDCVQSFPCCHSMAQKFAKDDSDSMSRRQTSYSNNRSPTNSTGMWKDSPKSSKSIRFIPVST", "experiment": "FLIPR calcium assay, rat V1a (A7r5 cells)", "type": "cell-based", "details": "A7R5, read-out: % MPE", "protocol": "Cell Lines. Studies were conducted with cell lines expressing rat (r) or human (h) Via, V1b, V2, or OT receptors. For the experiments with human receptors, human embryonic kidney (HEK)-flp-in cells stably expressing the lacZ-Zeocin™ fusion gene were used for expression of hV1a and hV1b. These cells were designed for use with the Flp-In™ expression vector containing the gene of interest (here hV1a or hV1b) and the Flp recombinase expression plasmid, pOG44. For hV2 and hOTR, HEK-293 cells transiently expressing hV2 were used.\nFunctional Cell-Based Assays."}, "[6]": {"details": "i.v., Period 1, active treatment"}, "[7]": {"details": "s.c., Period 2, active treatment"}},
  "note": "Starred links: 1 amine or outer side, 2 acyl side, 3 side chain; linkers in the order of their positions; H or OH if unused. Positions of bridges follow the written chain, without caps; N, C: chain ends. Non-standard residues stand in square brackets, D forms with d. Residues, ends and D or L forms follow the SMILES beside them. Chains are numbered I, II in the order given. *: point of attachment. isoGln = NC(=O)[C@H](CCC(=O)[*:2])N[*:1]; εLys = N[C@@H](CCCCN[*:1])C(=O)[*:2]; Dab = NCC[C@H](N)C(=O)O; PhAc = O=C(Cc1ccccc1)*",
  "data": [
    {"smiles": "CC[C@H](C)[C@@H]1NC(=O)[C@H](Cc2ccccc2)NC(=O)[C@@H](N)CSSC[C@@H](C(=O)N2CCC[C@H]2C(=O)N[C@@H](CCNC(=O)[C@@H](N)CCCCNC(=O)[C@H](CCCCNC(C)=O)NC(=O)CC[C@H](NC(=O)[C@H](CCCNC(=N)N)NC(=O)[C@@H]2CCCN2C(=O)[C@H](C)NC(=O)[C@H](CC(N)=O)NC(=O)[C@H](CCC(N)=O)NC(=O)[C@H](Cc2ccccc2)NC(=O)[C@@H](Cc2ccc(OC)cc2)NC(=O)Cc2ccccc2)C(N)=O)C(=O)NCC(N)=O)NC(=O)[C@H](CC(N)=O)NC(=O)[C@H](CCC(N)=O)NC1=O", "note": "[Compound 1, Glycinamide, L-cysteinyl-L-phenylalanyl-L-isoleucyl-L-glutaminyl-L-asparaginyl-L-cysteinyl-L-prolyl-N4-(phenylacetyl-O-methyl-D-tyrosyl-L-phenylalanyl-L-glutaminyl-L-asparaginyl-L-alanyl-L-prolyl-L-arginyl-L-isoglutamyl-N5-acetyl-L-lysyl-L-ε-lysyl)-L-2,4-diaminobutyryl-, cyclic (1→6)-disulfide] (I: H-CFIQNCP[Dab]G-NH2 / II: PhAc-[dY](Me)FQNAPR[isoGln]K(Ac)[εLys]; disulfide I:1-I:6; amide I:8-II:C)", "values": [
      {"measurement": "bioavailability", "setting": "[1]; about 10 mM buffer", "result": "about 13%"},
      {"measurement": "bioavailability", "setting": "[1]; about 100 mM buffer", "result": "about 37%"},
      {"measurement": "blood lactate versus pre-dose", "setting": "[2]", "result": "not notably increased"},
      {"measurement": "Emax", "setting": "[3]", "result": 72, "unit": "%"},
      {"measurement": "severe AEs", "setting": "[4]; i.v. 0.1 mg (bradycardia)", "result": "One"},
      {"measurement": "TEAEs regarded as ADRs", "setting": "[4]; i.v., 34 subjects on active treatment", "result": 87},
      {"measurement": "serious AEs", "setting": "[4]; i.v., Period 1", "result": "No serious AEs occurred"},
      {"measurement": "number of TEAEs", "setting": "[4]; [6]", "result": 94},
      {"measurement": "subjects with TEAEs", "setting": "[4]; [6]", "result": "35 of the 48"},
      {"measurement": "maximum tolerated s.c. dose (MTD)", "setting": "[4]; s.c.", "result": "about 0.1 mg"},
      {"measurement": "severe AEs", "setting": "[4]; s.c. 0.1 mg (abdominal pain)", "result": 3},
      {"measurement": "subjects with moderate oedema and mild pain at injection site", "setting": "[4]; s.c. 0.1 mg, 30 min", "result": 1, "unit": "subject"},
      {"measurement": "severe AEs", "setting": "[4]; s.c. 0.3 mg (abdominal pain, back pain), 1 subject", "result": 2},
      {"measurement": "serious AEs leading to discontinuation", "setting": "[4]; s.c. 0.3 mg (elevated troponin I)", "result": 1},
      {"measurement": "injection site reactions", "setting": "[4]; s.c. (bolus) injection", "result": "Erythema, pallor, and pruritus of mild severity"},
      {"measurement": "TEAEs regarded as ADRs", "setting": "[4]; s.c., 9 subjects on active treatment", "result": 87},
      {"measurement": "AE leading to death", "setting": "[4]; s.c., Period 2", "result": "No AE led to death"},
      {"measurement": "number of TEAEs", "setting": "[4]; [7]", "result": 87},
      {"measurement": "subjects with TEAEs", "setting": "[4]; [7]", "result": 9, "unit": "subjects"},
      {"measurement": "tolerability", "setting": "[4]; single i.v. infusion, about 0.9 mg or less", "result": "safe and well tolerated"},
      {"measurement": "Emax", "setting": "[5]", "result": 30, "unit": "%"}
    ]}
  ]
}
